The structures appear in SMILES notation.

The series in a line: pH of aqueous solution after production (Test Example 2). The settings on record: 100 mg dissolved in 10 mL of decarbonated water; pH reproducibility after production; hydrochloride. The class given is physicochemical. The method, then:
There was taken 100 mg each of the amorphous powders obtained in Reference Examples 1 to 3 and the A-form crystals obtained in Examples 1 to 3, to which 10 mL of decarbonated water was added for dissolution, followed by measuring the pH.

Consider `CN(C(=O)/C=C/c1ccoc1)[C@@H]1CC[C@@]2(O)[C@H]3Cc4ccc(O)c5c4[C@@]2(CCN3CC2CC2)[C@H]1O5.Cl` [Example 1, 17-cyclopropylmethyl-3,14β-dihydroxy-4,5α-epoxy-6β-[N-methyl-trans-3-(3-furyl)acrylamido]morphinan hydrochloride], for which the pH came out at 5.8. As for `CN(C(=O)/C=C/c1ccoc1)[C@@H]1CC[C@@]2(O)[C@H]3Cc4ccc(O)c5c4[C@@]2(CCN3CC2CC2)[C@H]1O5.Cl` [Example 2, 17-cyclopropylmethyl-3,14β-dihydroxy-4,5α-epoxy-6β-[N-methyl-trans-3-(3-furyl)acrylamido]morphinan hydrochloride], the pH came out at 5.4.

The compound `CN(C(=O)/C=C/c1ccoc1)[C@@H]1CC[C@@]2(O)[C@H]3Cc4ccc(O)c5c4[C@@]2(CCN3CC2CC2)[C@H]1O5.Cl` [Example 3, 17-cyclopropylmethyl-3,14β-dihydroxy-4,5α-epoxy-6β-[N-methyl-trans-3-(3-furyl)acrylamido]morphinan hydrochloride] showed a pH of 5.6. The same measure for `CN(C(=O)/C=C/c1ccoc1)[C@@H]1CC[C@@]2(O)[C@H]3Cc4ccc(O)c5c4[C@@]2(CCN3CC2CC2)[C@H]1O5.Cl` [Reference Example 1, 17-cyclopropylmethyl-3,14β-dihydroxy-4,5α-epoxy-6β-[N-methyl-trans-3-(3-furyl)acrylamido]morphinan hydrochloride]: 3.7; for `CN(C(=O)/C=C/c1ccoc1)[C@@H]1CC[C@@]2(O)[C@H]3Cc4ccc(O)c5c4[C@@]2(CCN3CC2CC2)[C@H]1O5.Cl` [Reference Example 2, 17-cyclopropylmethyl-3,14β-dihydroxy-4,5α-epoxy-6β-[N-methyl-trans-3-(3-furyl)acrylamido]morphinan hydrochloride]: 4.7.

`CN(C(=O)/C=C/c1ccoc1)[C@@H]1CC[C@@]2(O)[C@H]3Cc4ccc(O)c5c4[C@@]2(CCN3CC2CC2)[C@H]1O5.Cl` [Reference Example 3, 17-cyclopropylmethyl-3,14β-dihydroxy-4,5α-epoxy-6β-[N-methyl-trans-3-(3-furyl)acrylamido]morphinan hydrochloride] displayed a pH of 3.5.
